# Results taken from ChEMBL document CHEMBL4359904, “Structural tuning of acridones for developing anticancer agents targeting dihydrofolate reductase” (Bioorg Med Chem Lett, 2019).
# Active and inactive are the calls of the source. The calls are words filed in the database; no cut-off is given here.
# Experiments:
# [1] = test system: EKVX; assay: Growth inhibition of human EKVX cells incubated for 48 hrs by sulforhodamine B assay; type: functional
# [2] = test system: HOP-92; assay: Growth inhibition of human HOP92 cells incubated for 48 hrs by sulforhodamine B assay; type: functional; details: HOP-92, 48 h
# [3] = test system: NCI-H322M; assay: Growth inhibition of human NCI-H322M cells incubated for 48 hrs by sulforhodamine B assay; type: functional
# [4] = test system: NCI-H460; assay: Growth inhibition of human NCI-H460 cells incubated for 48 hrs by sulforhodamine B assay; type: functional; details: NCI-H460, 48 h
# [5] = test system: HCC 2998; assay: Growth inhibition of human HCC2998 cells incubated for 48 hrs by sulforhodamine B assay; type: functional; details: HCC 2998, 48 h
# [6] = test system: KM12; assay: Growth inhibition of human KM12 cells incubated for 48 hrs by sulforhodamine B assay; type: functional; details: KM12, 48 h
# [7] = test system: SF-268; assay: Growth inhibition of human SF268 cells incubated for 48 hrs by sulforhodamine B assay; type: functional; details: SF-268, 48 h
# [8] = test system: SF-539; assay: Growth inhibition of human SF539 cells incubated for 48 hrs by sulforhodamine B assay; type: functional; details: SF-539, 48 h
# [9] = test system: SNB-19; assay: Growth inhibition of human SNB19 cells incubated for 48 hrs by sulforhodamine B assay; type: functional; details: SNB-19, 48 h
# [10] = test system: SNB-75; assay: Growth inhibition of human SNB75 cells incubated for 48 hrs by sulforhodamine B assay; type: functional; details: SNB-75, 48 h
# [11] = test system: U-251; assay: Growth inhibition of human U251 cells incubated for 48 hrs by sulforhodamine B assay; type: functional; details: U-251, 48 h
# [12] = test system: SK-MEL-28; assay: Growth inhibition of human SK-MEL-28 cells incubated for 48 hrs by sulforhodamine B assay; type: functional; details: SK-MEL-28, 48 h
# [13] = test system: OVCAR-3; assay: Growth inhibition of human OVCAR3 cells incubated for 48 hrs by sulforhodamine B assay; type: functional; details: OVCAR-3, 48 h
# [14] = test system: OVCAR-4; assay: Growth inhibition of human OVCAR4 cells incubated for 48 hrs by sulforhodamine B assay; type: functional; details: OVCAR-4, 48 h
# [15] = test system: OVCAR-5; assay: Growth inhibition of human OVCAR5 cells incubated for 48 hrs by sulforhodamine B assay; type: functional; details: OVCAR-5, 48 h
# [16] = test system: OVCAR-8; assay: Growth inhibition of human OVCAR8 cells incubated for 48 hrs by sulforhodamine B assay; type: functional; details: OVCAR-8, 48 h
# [17] = test system: NCI/ADR-RES; assay: Growth inhibition of human NCI/ADR-RES cells incubated for 48 hrs by sulforhodamine B assay; type: functional
# [18] = test system: 786-0; assay: Growth inhibition of human 786-0 cells incubated for 48 hrs by sulforhodamine B assay; type: functional; details: 786-0, 48 h
# [19] = test system: A498; assay: Growth inhibition of human A498 cells incubated for 48 hrs by sulforhodamine B assay; type: functional; details: A498, 48 h
# [20] = test system: ACHN; assay: Growth inhibition of human ACHN cells incubated for 48 hrs by sulforhodamine B assay; type: functional
# [21] = test system: SN12C; assay: Growth inhibition of human SN12C cells incubated for 48 hrs by sulforhodamine B assay; type: functional
# [22] = test system: UO-31; assay: Growth inhibition of human UO31 cells incubated for 48 hrs by sulforhodamine B assay; type: functional; details: UO-31, 48 h
# [23] = test system: PC-3; assay: Growth inhibition of human PC3 cells incubated for 48 hrs by sulforhodamine B assay; type: functional; details: PC-3, 48 h
# [24] = test system: BT-549; assay: Growth inhibition of human BT549 cells incubated for 48 hrs by sulforhodamine B assay; type: functional; details: BT-549, 48 h
# [25] = test system: T47D; assay: Growth inhibition of human T47D cells incubated for 48 hrs by sulforhodamine B assay; type: functional
# [26] = test system: SR; assay: Growth inhibition of human SR cells at 10^-5 M incubated for 48 hrs by sulforhodamine B assay relative to control; type: functional; details: read-out: GI
# [27] = test system: Panel NCI-60 (60 carcinoma cell lines); assay: Therapeutic index, ratio of LC50 for human NCI60 cells to GI50 for human NCI60 cells measured after 48 hrs by sulforhodamine B assay; type: functional
# [28] = test system: C6; assay: Induction of morphological changes in rat C6 cells assessed as increase in total length of processes measured after 24 hrs by inverted microscopy analysis relative to control; type: functional
# [29] = biological target: T1, Dihydrofolate reductase (Homo sapiens, UniProt P00374); assay: Inhibition of human dihydrofolate reductase using dihydrofolic acid as substrate preincubated for 1 hr in presence of NADPH followed by substrate addition by enzyme immunoassay
# T1 sequence (P00374 whole entry): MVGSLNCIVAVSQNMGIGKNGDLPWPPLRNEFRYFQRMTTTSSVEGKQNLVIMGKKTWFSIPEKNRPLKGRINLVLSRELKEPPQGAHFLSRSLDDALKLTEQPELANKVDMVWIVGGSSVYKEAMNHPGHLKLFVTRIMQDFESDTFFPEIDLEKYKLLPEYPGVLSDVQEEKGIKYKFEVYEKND
# [30] = biological target: T2, Dihydrofolate reductase (Homo sapiens) (UniProt P00374); assay: Binding affinity to human dihydrofolate reductase at 5 uM assessed as decrease in absorption band by UV-visible spectroscopic analysis
# T2 sequence (whole entry): T1 sequence (P00374 whole entry)
# [31] = read-out: pLC50 (the source's name) (converted)
smiles,measurement,setting,value
O=C(OC[C@@H]1CO1)c1cccc2c(=O)c3ccccc3[nH]c12,GI50,[1],2.57 µM
same,CC50,[1]; [31],> 100 µM
same,TGI,[1]; read-out: pTGI (converted),6.46 µM
same,GI50,[2],2.04 µM
same,CC50,[2]; [31],> 100 µM
same,TGI,[2]; read-out: pTGI (converted),5.25 µM
same,GI50,[3],2.19 µM
same,CC50,[3]; [31],> 100 µM
same,TGI,[3]; read-out: pTGI (converted),5.89 µM
same,GI50,[4],1.7 µM
same,CC50,[4]; [31],51.3 µM
same,TGI,[4]; read-out: pTGI (converted),4.47 µM
same,GI50,[5],1.51 µM
same,CC50,[5]; [31],7.76 µM
same,TGI,[5]; read-out: pTGI (converted),3.47 µM
same,GI50,[6],2.19 µM
same,CC50,[6]; [31],> 100 µM
same,TGI,[6]; read-out: pTGI (converted),7.08 µM
same,GI50,[7]; read-out: pGI50 (converted),1.62 µM
same,CC50,[7]; [31],> 100 µM
same,TGI,[7]; read-out: pTGI (converted),6.03 µM
same,GI50,[8],1.78 µM
same,CC50,[8]; [31],7.76 µM
same,TGI,[8]; read-out: pTGI (converted),3.72 µM
same,GI50,[9],2.29 µM
same,CC50,[9]; [31],28.2 µM
same,TGI,[9]; read-out: pTGI (converted),7.76 µM
same,GI50,[10],1.51 µM
same,CC50,[10]; [31],7.94 µM
same,TGI,[10]; read-out: pTGI (converted),3.47 µM
same,GI50,[11],1.82 µM
same,CC50,[11]; [31],50.1 µM
same,TGI,[11]; read-out: pTGI (converted),7.24 µM
same,GI50,[12],2.4 µM
same,CC50,[12]; [31],> 100 µM
same,TGI,[12]; read-out: pTGI (converted),5.75 µM
same,GI50,[13],2.29 µM
same,CC50,[13]; [31],51.3 µM
same,TGI,[13]; read-out: pTGI (converted),7.24 µM
same,GI50,[14],2.4 µM
same,CC50,[14]; [31],> 100 µM
same,TGI,[14]; read-out: pTGI (converted),7.94 µM
same,GI50,[15],2.45 µM
same,CC50,[15]; [31],> 100 µM
same,TGI,[15]; read-out: pTGI (converted),6.46 µM
same,GI50,[16],1.26 µM
same,CC50,[16]; [31],41.7 µM
same,TGI,[16]; read-out: pTGI (converted),5.37 µM
same,GI50,[17],1.7 µM
same,CC50,[17]; [31],> 100 µM
same,TGI,[17]; read-out: pTGI (converted),6.31 µM
same,GI50,[18],2.75 µM
same,CC50,[18]; [31],> 100 µM
same,TGI,[18]; read-out: pTGI (converted),8.13 µM
same,GI50,[19],2.63 µM
same,CC50,[19]; [31],27.5 µM
same,TGI,[19]; read-out: pTGI (converted),6.61 µM
same,GI50,[20]; read-out: GI50,0.89 µM
same,CC50,[20]; read-out: LC50 (the source's name),> 100 µM
same,GI50,[20]; read-out: pGI50 (converted),0.891 µM
same,CC50,[20]; [31],> 100 µM
same,TGI,[20]; read-out: pTGI (converted),3.89 µM
same,GI50,[21],1.82 µM
same,CC50,[21]; [31],41.7 µM
same,TGI,[21]; read-out: pTGI (converted),7.08 µM
same,GI50,[22],1.74 µM
same,CC50,[22]; [31],77.6 µM
same,TGI,[22]; read-out: pTGI (converted),5.01 µM
same,GI50,[23],2.04 µM
same,CC50,[23]; [31],> 100 µM
same,TGI,[23]; read-out: pTGI (converted),8.32 µM
same,GI50,[24],1.91 µM
same,CC50,[24]; [31],> 100 µM
same,TGI,[24]; read-out: pTGI (converted),6.03 µM
same,GI50,[25],2.51 µM
same,CC50,[25]; [31],> 100 µM
same,TGI,[25]; read-out: pTGI (converted),8.32 µM
same,inhibition of growth at 10 µM,[26],90%
same,TI,[27],126
same,Activity,[28],85.53%
same,IC50,[29],0.01 µM
same,Activity,[30],Active
